{"source": "patent US4780476A", "about": "“Azoniaspironortropanol esters as asthma therapeutics and broncholytics” (Madaus GmbH & Co., priority 1985, dated 1988)", "tested_on": "T1, isolated tracheal spirals of the guinea pig (Cavia porcellus)", "T1 construct": "the whole of the trachea is roughly freed beginning from the larynx up to the tracheal bifurcation, removed and transferred; from tissue; host or cells: isolated trachea (spiral strips) of male Pirbright white guinea pigs", "T1 sequence (H0W1Z3 1-590)": "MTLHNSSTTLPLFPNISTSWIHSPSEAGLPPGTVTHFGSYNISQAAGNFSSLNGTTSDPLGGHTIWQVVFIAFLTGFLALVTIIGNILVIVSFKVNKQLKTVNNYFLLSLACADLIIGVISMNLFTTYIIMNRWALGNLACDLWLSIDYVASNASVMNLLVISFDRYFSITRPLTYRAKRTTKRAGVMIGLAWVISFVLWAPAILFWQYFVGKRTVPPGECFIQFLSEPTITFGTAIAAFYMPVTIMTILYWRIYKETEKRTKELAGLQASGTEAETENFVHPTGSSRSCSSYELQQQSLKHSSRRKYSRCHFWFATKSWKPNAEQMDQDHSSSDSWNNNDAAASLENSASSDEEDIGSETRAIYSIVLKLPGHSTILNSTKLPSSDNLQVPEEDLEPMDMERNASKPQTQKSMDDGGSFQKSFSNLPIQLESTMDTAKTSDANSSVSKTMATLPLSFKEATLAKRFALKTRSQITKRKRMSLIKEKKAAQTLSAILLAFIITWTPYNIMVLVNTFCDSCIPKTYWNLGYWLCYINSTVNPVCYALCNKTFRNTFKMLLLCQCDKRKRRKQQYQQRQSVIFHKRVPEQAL", "test": "anticholinergic effectiveness on isolated tracheal spirals (antagonism against acetyl-β-methylcholine chloride)", "details": "ratio of maximum agonist effect in presence (EAmB) and absence (EAm) of antagonist", "from_the_text": "A model for this is the measurement of the anticholinergic effectiveness on isolated tracheal spirals of the guinea pig.\nThe test substance used was 3α-benziloyloxynortropane-8-spiro-1'-pyrrolidinium chloride (trospium chloride; MP 194), ipratropium bromide being used as comparison substance.\nThere is to be determined the anticholinergic effectiveness of MP 194 in comparison with the reference substance ipratropium bromide on the isolated tracheal spirals of the guinea pig.\n3.1.1. animal species: guinea pig\n3.1.2. animal strain: Pirbright white\n3.3.1. test substance (test antagonist) trospium chloride (MP 194) (M.W. 428)\n3.3.2. reference substance (reference antagonist) ipratropium bromide (Atrovent) (M.W. 412.4)\n3.3.3.1. acetyl-β-methylcholine chloride (Sigma) (M.W. 195.7)\nThe guinea pig is stunned by a blow on the neck. Subsequently, the whole of the trachea is roughly freed beginning from the larynx up to the tracheal bifurcation, removed and transferred to tempered (37° C.) and carbogenized tyrode solution. After surrounding connective tissue has been removed as far as possible, the preparation is cut up spirally by means of fine scissors at an angle of about 45° and separated into two equal sized sections. After weighing, both preparations are provided proximally and distally with a silk thread. One thread serves for fixing the preparation by means of a loop to the bottom of the bath and the other is connected via a hook with the transducer above the bath vessel.\nSubsequently, the preparations, corresponding to the calibration, are prestressed with about 80 mN and equilibrated from 50-100 minutes. During the equilibration phase, the nutrient solution in the bath vessels is renewed in 15 minute intervals. As soon as the resting muscle tonus of the preparation has stabilized, there takes place the cumulative addition of the agonist, whereby the addition of the next highest concentration first takes place when no further increase of contraction is recognisable (plateau). When the maximum contraction height of the preparation is achieved, the cumulative agonist addition is ended and the preparation is rinsed. After a further equilibration phase (v. supra), the cumulative addition of the agonist is repeated but this time in the presence of the test or reference antagonist.\n3.6.1. The perfusion part consists of an L-shaped organ bath in the hollow space of which (longer limb) runs a double glass spiral through which the nutrient solution is passed into the actual bath vessel (28 ml. content; shorter limb). This bath vessel is divided into two chambers which are, however, connected together by two transverse connections. […] The inlet chambers as well as the feeding glass spirals are tempered from the outside to 37° C. by a separate liquid circulation. This tempering takes place with the help of a \"Colora\" ultra-thermostat type K (Colora Messtechnik GmbH, Dusseldorf, Germany) which serves as thermostat and pump. In order, in case of need, always to have available ready-for-use nutrient solution, above the organ bath is provided a double-walled storage container in which the nutrient solution is also tempered and carbogenised. This is connected via a glass stopcock and a polypropylene tube with double glass spiral in the interior of the organ bath.\n3.6.2. The measurement and recording part includes a transducer (Statham-Universal-Zelle UC-2; Hugo Sachs Elektronic KG, Hugstetten, Germany). By means of a hanging-in weight, a force of 40 mN is produced on the transducer which passes as electrical signal via a connecting cable to a bridge amplifier. The amplification is smoothly so regulated that the force provided corresponds to a constant value on the scale or an analogous value on the millimeter paper of the recorder (dependent upon the amplification; see below). After fixing the organ, the preparation is prestressed to the doubled mark, corresponding to 80 mN. […]", "data": [{"smiles": "O=C(O[C@H]1C[C@H]2CC[C@@H](C1)[N+]21CCCC1)C(O)(c1ccccc1)c1ccccc1", "note": "[trospium chloride, 3α-benziloyloxynortropane-8-spiro-1'-pyrrolidinium chloride]", "values": [{"measurement": "EAmB/EAm ± s", "value": "1.09 ± 0.22"}]}]}
